Values after ≈ are worked out from the molar mass of the structure shown. Active and inactive are the calls of the source. No cut-off for these calls is given here.
Experiments:
[1] = human, microsomes, 0.5 h, 2 µM
[2] = Apparent permeability from apical to basolateral side in dog MDCK cells at 20 uM at pH 7.4; format: ADME, cell-based, Canis lupus familiaris
[3] = Solubility of the compound in FaSSIF measured after 16 hrs by HPLC analysis; format: physicochemical
[4] = Fraction unbound in human plasma incubated for 4.5 hrs by LC/MS/MS analysis; format: ADME, cell-free
[5] = molecular target: T1, Nuclear receptor ROR-gamma (Homo sapiens) (UniProt P51449); assay: Displacement of [3H]-25-hydroxycholesterol from His-Flag-tagged human RORgammat LBD (309 to 508 residues) expressed in Escherichia coli at 10 uM measured after 4 hrs by Microbeta counter based analysis relative to control
T1 sequence (whole entry): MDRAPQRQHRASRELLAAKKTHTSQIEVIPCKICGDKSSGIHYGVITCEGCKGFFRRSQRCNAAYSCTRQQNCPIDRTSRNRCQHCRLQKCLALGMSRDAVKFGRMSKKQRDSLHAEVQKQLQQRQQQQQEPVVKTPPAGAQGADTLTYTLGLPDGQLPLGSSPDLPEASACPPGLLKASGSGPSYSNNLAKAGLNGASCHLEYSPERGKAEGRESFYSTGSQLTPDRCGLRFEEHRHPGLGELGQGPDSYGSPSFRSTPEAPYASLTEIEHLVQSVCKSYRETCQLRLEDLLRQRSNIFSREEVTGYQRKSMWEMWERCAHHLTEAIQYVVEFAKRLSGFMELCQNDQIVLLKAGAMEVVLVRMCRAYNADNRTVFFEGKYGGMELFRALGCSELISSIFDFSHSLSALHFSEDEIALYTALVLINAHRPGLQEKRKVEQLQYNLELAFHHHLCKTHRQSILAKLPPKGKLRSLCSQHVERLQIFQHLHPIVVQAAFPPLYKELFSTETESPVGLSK

cells = conditions: Mus musculus, PBMC
Description: Inhibition of IL-17A secretion in antiCD3/IL-23 stimulated mouse PBMC cells in mouse plasma preincubated for 2 hrs followed by antiCD3/IL23 stimulation and measured after 6 hrs by Taqman PCR analysis

Mus musculus [6] = assay: Antiinflammatory activity against glucose-6-phosphate isomerase induced arthritis mouse model assessed as reduction in IL-17 mRNA expression in paws at 3 mg/kg administered once daily for 21 days from GPI immunization by Taqman PCR analysis relative to control; format: functional; parameters: scale not given: the % may be the effect or the level left; conditions: time 21 day
Mus musculus [7] = assay: Antiinflammatory activity against glucose-6-phosphate isomerase induced arthritis mouse model assessed as reduction in IL-17 mRNA expression in paws at 30 mg/kg administered once daily for 21 days from GPI immunization by Taqman PCR analysis relative to control; format: functional; parameters: scale not given: the % may be the effect or the level left; conditions: time 21 day
Mus musculus [8] = assay: Antiinflammatory activity against glucose-6-phosphate isomerase induced arthritis mouse model assessed as complete prophylaxis at 100 mg/kg administered once daily for 21 days from GPI immunization; format: functional, organism-based; conditions: time 21.0 day
Mus musculus [9] = assay: Antiinflammatory activity against glucose-6-phosphate isomerase induced arthritis mouse model assessed as reduction in IL-17 mRNA expression in paws at 10 mg/kg administered once daily for 21 days from GPI immunization by Taqman PCR analysis relative to control; format: functional; parameters: scale not given: the % may be the effect or the level left; conditions: time 21 day
PBMC = conditions: Mus musculus, dose 30-100 mg/kg, time 20-24 hrs
Description: Inhibition of IL-17A secretion in antiCD3/IL-23 stimulated mouse PBMC cells in mouse plasma at 30 to 100 mg/kg when plasma exposure above 1.8 uM for 20 to 24 hrs

Mus musculus [10] = assay: Antiinflammatory activity against glucose-6-phosphate isomerase induced arthritis mouse model assessed as improvement in clinical score at 10 to 30 mg/kg administered once daily for 21 days from GPI immunization; format: functional, organism-based; conditions: dose 10-30 mg/kg, time 21.0 day

Question: With `CS(=O)(=O)c1ccc(CNC(=O)c2cc3c(s2)C2(CCN(Cc4ccc(Cl)cc4)CC2)OCC3)cc1` as the compound, how does the CL free [1] read?
Answer: 495 mL/min/kg

Question: With `CCS(=O)(=O)c1ccc(CNC(=O)c2cc3c(s2)C2(CCN([C@H](C)c4ccc(C#N)cc4)CC2)OCC3)nc1` as the compound, how does the CL free [1] read?
Answer: 92.2 mL/min/kg

Question: What about the Papp A→B at 20 µM [2] of the same compound?
Answer: 8.5 ×10⁻⁶ cm/s

Question: And the solubility at 16 h [3]?
Answer: 185 µg/mL (≈ 328 µM)

Question: And the fraction unbound at 4.5 h [4]?
Answer: 0.05

Question: For `C[C@H](c1ccc(C#N)cc1)N1CCC2(CC1)OCCc1cc(C(=O)NCc3ccc(S(C)(=O)=O)cc3)sc12`, which CL free [1] is on record?
Answer: 218 mL/min/kg

Question: For `COc1ccccc1-n1cc(CN2CCC3(CC2)OCC(F)(F)c2cc(Cl)sc23)c(C)n1`, which Activity [5] is on record?
Answer: 52%

Question: What does the source list for `CCS(=O)(=O)c1ccc(CNC(=O)c2cc3c(s2)C2(CCN([C@H](C)c4cnc(C(F)(F)F)nc4)CC2)OCC3)cc1`?
Answer: CL free [1]: 69.5 mL/min/kg; Papp A→B at 20 µM [2]: 8.56 ×10⁻⁶ cm/s; solubility at 16 h [3]: 16 µg/mL (≈ 26.3 µM); fraction unbound at 4.5 h [4]: 0.056

Question: With `CS(=O)(=O)c1ccc(CNC(=O)c2cc3c(s2)C2(CCN(Cc4ccc(Cl)cc4Cl)CC2)OCC3)cc1` as the compound, how does the CL free [1] read?
Answer: 3450 mL/min/kg

Question: With `CCS(=O)(=O)c1ccc(CNC(=O)c2cc3c(s2)C2(CCN([C@H](C)c4cnc(C(F)(F)F)nc4)CC2)O[C@@H](C)C3)nc1` as the compound, how does the CL free [1] read?
Answer: 32 mL/min/kg

Question: And the Papp A→B at 20 µM [2]?
Answer: 9.07 ×10⁻⁶ cm/s

Question: And the solubility at 16 h [3]?
Answer: 220 µg/mL (≈ 353 µM)

Question: And the fraction unbound at 4.5 h [4]?
Answer: 0.12

Question: Which CL free [1] does the source give for `CS(=O)(=O)c1ccc(CNC(=O)c2cc3c(s2)C2(CCN(Cc4ccc(C(F)(F)F)cc4)CC2)OCC3)cc1` here?
Answer: 448 mL/min/kg

Question: Which CL free [1] does the source give for `CCS(=O)(=O)c1ccc(CNC(=O)c2cc3c(s2)C2(CCN([C@H](C)c4ccc(C#N)cc4)CC2)OCC3)cc1` here?
Answer: 406 mL/min/kg

Question: And the IC50 (cells)?
Answer: 1800 nM

Question: What about the Activity (Mus musculus [6]) of the same compound?
Answer: 82%

Question: And the Papp A→B at 20 µM [2]?
Answer: 7.07 ×10⁻⁶ cm/s

Question: What about the Activity (Mus musculus [7]) of the same compound?
Answer: 88%

Question: And the Activity (Mus musculus [8])?
Answer: Active

Question: And the Activity (Mus musculus [9])?
Answer: 90%

Question: And the solubility at 16 h [3]?
Answer: 9 µg/mL (≈ 16 µM)

Question: And the inhibition (PBMC)?
Answer: Active

Question: And the Activity (Mus musculus [10])?
Answer: Active

Question: What about the fraction unbound at 4.5 h [4] of the same compound?
Answer: 0.02

Question: For `CS(=O)(=O)c1ccc(CNC(=O)c2cc3c(s2)C2(CCN(Cc4ccc(C#N)cc4)CC2)OCC3)cc1`, which CL free [1] is on record?
Answer: 80.7 mL/min/kg

Question: Which CL free [1] does the source give for `CCS(=O)(=O)c1ccc(CNC(=O)c2cc3c(s2)C2(CCN([C@H](C)c4cnc(C(F)(F)F)nc4)CC2)O[C@@H](C)C3)cc1` here?
Answer: 36.2 mL/min/kg

Question: What about the Papp A→B at 20 µM [2] of the same compound?
Answer: 7.57 ×10⁻⁶ cm/s

Question: And the solubility at 16 h [3]?
Answer: 24 µg/mL (≈ 38.5 µM)

Question: What about the fraction unbound at 4.5 h [4] of the same compound?
Answer: 0.041

From ChEMBL document CHEMBL5053486, “Defining Target Engagement Required for Efficacy In Vivo at the Retinoic Acid Receptor-Related Orphan Receptor C2 (RORγt)” (J Med Chem, 2021)
